Common to all, as to assay type: functional, cell-based
One test deals with A549. The experiment in a line: Cytotoxicity against human A549 cells by MTT assay. Background: Tetrazolium dyes change colour on reduction, which living cells bring about.
The test system of the next test is DU-145. The experiment in a line: Cytotoxicity against human DU145 cells by MTT assay.
Another test concerns HeLa. Description: Cytotoxicity against human HeLa cells by MTT assay.
The test system of a further test is MCF7. Description: Cytotoxicity against human MCF7 cells by MTT assay.
Setting [1] is: Homo sapiens, A549, read-out: IC50.
The mark [2] stands for this setting: Homo sapiens, DU-145, read-out: IC50.
The mark [3] stands for this setting: Homo sapiens, HeLa, read-out: IC50.
Setting [4] is: Homo sapiens, MCF7, read-out: IC50.

Molecules are shown by their SMILES.

The term IC50 denotes the concentration needed to halve the response being measured.

On to `COC(=O)C[C@H]1C[C@@H](O)[C@@H](C)[C@@H](c2ccc(F)cc2)N1`, for which the IC50 in the test with A549 (setting [1]) stood at 26.6 µM; in the test with DU-145 (setting [2]), 51.7 µM; with HeLa (setting [3]), 19.8 µM; in the test with MCF7 (setting [4]), 15.6 µM.
For the compound `COC(=O)C[C@H]1C[C@H](O)[C@@H](C)[C@@H](c2ccc(C)cc2)N1`, the IC50 was 97.6 µM with A549 (setting [1]), 330 µM in the test on DU-145 (setting [2]), “Not Active” with HeLa (hela) and “Not Active” in the test with MCF7 (mcf7).
Turning to `COC(=O)C[C@H]1C[C@@H](O)[C@@H](C)[C@@H](c2ccc(OC)cc2)N1`, the IC50 came to 23.5 µM in the test with A549 (setting [1]), 12.6 µM in the test on DU-145 (setting [2]), 11.5 µM in the test on HeLa (setting [3]) and 10.4 µM in the test on MCF7 (setting [4]).
On to `COC(=O)C[C@H]1C[C@H](O)[C@@H](C)[C@@H](c2ccc(C(C)C)cc2)N1`, for which the IC50 entry is “Not Active” in the test on A549 (a549), 27.4 µM in the test on DU-145 (setting [2]), 18.2 µM in the test with HeLa (setting [3]) and 17.1 µM with MCF7 (setting [4]).
In the case of `COC(=O)C[C@@H]1C[C@@H](O)[C@H](C)[C@H](c2ccccc2)N1`, the IC50 in the test on A549 (setting [1]) is 8.5 µM; in the test with DU-145 (setting [2]), 6.3 µM; in the test with HeLa (setting [3]) it was 6.5 µM; with MCF7 (setting [4]) it was 5.4 µM.
For the compound `COC(=O)C[C@H]1C[C@@H](O)[C@H](C)[C@@H](c2ccccc2)N1`, the IC50 came out at 34.6 µM with A549 (setting [1]), 64.1 µM in the test with DU-145 (setting [2]), 35.2 µM in the test with HeLa (setting [3]) and 35.6 µM with MCF7 (setting [4]).
In the case of `COC(=O)C[C@H]1C[C@@H](O)[C@@H](C)[C@@H](c2ccc(C(C)C)cc2)N1`, the IC50 result with A549 (a549) was “Not Active”; in the test with DU-145 (setting [2]), 110 µM; in the test with HeLa (hela) it was “Not Active”; in the test on MCF7 (mcf7) it was “Not Active”.
As for `COC(=O)C[C@H]1C[C@@H](O)[C@@H](C)[C@@H](c2ccc(C)cc2)N1`, the IC50 was determined as 29 µM in the test with A549 (setting [1]), 49.7 µM in the test on DU-145 (setting [2]), 13.4 µM with HeLa (setting [3]) and 12.2 µM in the test on MCF7 (setting [4]).
Take `COC(=O)C[C@H]1C[C@H](O)[C@H](C)[C@@H](c2ccccc2)N1`: the IC50 is 69.2 µM in the test on A549 (setting [1]), “Not Active” in the test with DU-145 (du-145), 41.1 µM with HeLa (setting [3]) and “Not Active” in the test with MCF7 (mcf7).
`COc1ccc([C@H]2N[C@@H](CCO)C[C@H](O)[C@H]2C)cc1`: the IC50 in the test with A549 (setting [1]) is 17.6 µM; in the test on DU-145 (setting [2]), 14.8 µM; in the test on HeLa (setting [3]), 16.5 µM; in the test with MCF7 (setting [4]), 13.7 µM.
In the case of `C[C@H]1[C@H](O)C[C@@H](CC(=O)O)N[C@H]1c1ccccc1`, the IC50 in the test with A549 (setting [1]) turned out to be 28.9 µM; with DU-145 (setting [2]), 46.5 µM; in the test on HeLa (setting [3]), 33.4 µM; in the test with MCF7 (setting [4]), 23.1 µM.
On the same counts, the results for `COc1ccc([C@H]2N[C@@H](CC(=O)O)C[C@H](O)[C@H]2C)cc1` are 20.1 µM, 15.7 µM, 19.9 µM and 12.5 µM.
For the compound `COC(=O)C[C@H]1C[C@H](O)[C@@H](C)[C@@H](c2ccc(F)cc2)N1`, the IC50 was 17.2 µM with A549 (setting [1]), “Not Active” in the test with DU-145 (du-145), 17.4 µM with HeLa (setting [3]) and 18.2 µM in the test on MCF7 (setting [4]).
Regarding `COc1cccc2c1C(=O)c1c(O)c3c(c(O)c1C2=O)C[C@@](O)(C(=O)CO)C[C@@H]3O[C@H]1C[C@H](N)[C@H](O)[C@H](C)O1` [DOXORUBICIN], the values for the IC50 with A549 (setting [1]), in the test on HeLa (setting [3]) and in the test with MCF7 (setting [4]) were 0.6 µM, 0.7 µM and 0.6 µM, respectively.
Take `C[C@H]1[C@H](O)C[C@@H](CCO)N[C@H]1c1ccccc1`: the IC50 is 31.2 µM with A549 (setting [1]), 41.6 µM in the test with DU-145 (setting [2]), 31.5 µM in the test on HeLa (setting [3]) and 39.8 µM in the test on MCF7 (setting [4]).
The matching figures for `COC(=O)C[C@H]1C[C@H](O)[C@@H](C)[C@@H](c2ccc(OC)cc2)N1`: 5.4 µM, 6.5 µM, 5.3 µM and 5.1 µM.
On the same counts, the results for `COC(=O)C[C@@H]1C[C@H](O)[C@H](C)[C@H](c2ccccc2)N1` are 20.5 µM, 11.3 µM, 14.2 µM and 12.3 µM.

(Values after ChEMBL document CHEMBL3352547, “A concise diastereoselective approach to enantioenriched substituted piperidines and their in vitro cytotoxicity evaluation” (Bioorg Med Chem Lett, 2014).)
